Experimental data published in publication PMC10612060 (Viruses, 2023).
Several values for one entry are separate records, joined by “and”; a condition that tells them apart may be missing. Identical values can stand only once. Like-named read-outs stand apart in the source and are kept apart here.

Experiments:
[1] = Adverse effects in rodents at exposure of the maximum dose; type: in vivo; details: same exposure conditions as the maximum dose administered to mice
[2] = in vivo; parameters: species or system mice; details: mouse plasma, simulated; for Cmax / AUC(0-t): BALB/c, mouse, in vivo, po; for AUC(0-t): read-out: AUC0–48h
[3] = test system: SARS-CoV-2 gamma strain hCoV-19/Japan/TY7-501/2021; type: in vivo, BALB/c mice
[4] = test system: SARS-CoV-2 gamma strain (hCoV-19/Japan/TY7-501/2021); details: cited from earlier work; for Viral titer in lungs: twice daily for 2 d, Day 2, individual mice 1-5, previously reported ref 12
[5] = test system: SARS-CoV-2 gamma strain (hCoV-19/Japan/TY7-501/2021); parameters: method as in earlier work; details: extrapolated to 100% mouse serum, cited from earlier work
[6] = 8 mg/kg, thrice daily for 2 d, 8 mg/kg oral
[7] = 8 mg/kg, twice daily for 2 d, 8 mg/kg oral
[8] = 16 mg/kg, once daily for 2 d, 16 mg/kg oral
[9] = 16 mg/kg, thrice daily for 2 d, 16 mg/kg oral
[10] = 16 mg/kg, twice daily for 2 d, 16 mg/kg oral
[11] = 32 mg/kg, once daily for 2 d, 32 mg/kg oral
[12] = 32 mg/kg, one shot, 32 mg/kg oral
[13] = 32 mg/kg, thrice daily for 2 d, 32 mg/kg oral
[14] = 32 mg/kg, twice daily for 2 d, 32 mg/kg oral
[15] = 64 mg/kg, once daily for 2 d, 64 mg/kg oral
[16] = 64 mg/kg, one shot, 64 mg/kg oral
[17] = 64 mg/kg, thrice daily for 2 d, 64 mg/kg oral
[18] = 64 mg/kg, twice daily for 2 d, 64 mg/kg oral

## Cn1cnc(Cn2c(=O)[nH]/c(=N\c3cc4cn(C)nc4cc3Cl)n(Cc3cc(F)c(F)cc3F)c2=O)n1 [ensitrelvir, ensitrelvir fumaric acid]
[1]
  Adverse effects: No adverse effects were observed
[2]; [6]
  Cmax: 21.5 µg/mL
  AUC(0-t): 657 µg·h/mL
[2]; [7]
  Cmax: 18.1 µg/mL
  AUC(0-t): 446 µg·h/mL
[2]; [8]
  Cmax: 38.8 µg/mL
  AUC(0-t): 475 µg·h/mL
[2]; [9]
  Cmax: 47.6 µg/mL
  AUC(0-t): 1390 µg·h/mL
[2]; [10]
  Cmax: 41.3 µg/mL
  AUC(0-t): 941 µg·h/mL
[2]; [11]
  Cmax: 72.5 µg/mL
  AUC(0-t): 1020 µg·h/mL
[2]; [12]
  Cmax: 72.4 µg/mL
  AUC(0-t): 510 µg·h/mL
[2]; [13]
  Cmax: 96 µg/mL
  AUC(0-t): 2960 µg·h/mL
[2]; [14]
  Cmax: 79.7 µg/mL
  AUC(0-t): 2010 µg·h/mL
[2]; [15]
  Cmax: 160 µg/mL
  AUC(0-t): 2670 µg·h/mL
[2]; [16]
  Cmax: 159 µg/mL
  AUC(0-t): 1340 µg·h/mL
[2]; [17]
  Cmax: 232 µg/mL
  AUC(0-t): 7650 µg·h/mL
[2]; [18]
  Cmax: 188 µg/mL
  AUC(0-t): 5230 µg·h/mL
[2]; once daily for 2 d, 16 mg/kg oral
  C48h: 75.8 ng/mL
[2]; once daily for 2 d, 32 mg/kg oral
  C48h: 210 ng/mL
[2]; once daily for 2 d, 64 mg/kg oral
  C48h: 1290 ng/mL
[2]; one shot, 32 mg/kg oral
  C48h: 0.0591 ng/mL
[2]; one shot, 64 mg/kg oral
  C48h: 1.11 ng/mL
[2]; thrice daily for 2 d, 8 mg/kg oral
  C48h: 5740 ng/mL
[2]; thrice daily for 2 d, 16 mg/kg oral
  C48h: 11,600 ng/mL
[2]; thrice daily for 2 d, 32 mg/kg oral
  C48h: 30,000 ng/mL
[2]; thrice daily for 2 d, 64 mg/kg oral
  C48h: 88,300 ng/mL
[2]; twice daily for 2 d, 8 mg/kg oral
  C48h: 1840 ng/mL
[2]; twice daily for 2 d, 16 mg/kg oral
  C48h: 3760 ng/mL
[2]; twice daily for 2 d, 32 mg/kg oral
  C48h: 11,400 ng/mL
[2]; twice daily for 2 d, 64 mg/kg oral
  C48h: 42,000 ng/mL
[3]; given during the viral clearance phase
  Antiviral activity when administration delayed 72 h post-infection: dose-dependent antiviral activity
[3]; mouse, in vivo
  Dose that significantly lowered lung viral titers compared to vehicle: ≥ 8 mg/kg
[4]; 8 mg/kg oral from 24 h post-infection, 8 mg/kg
  Viral titer in lungs: 5.80 log10 TCID50/mL (2×) and 5.97 log10 TCID50/mL (2×) and 5.63 log10 TCID50/mL
[4]; 16 mg/kg oral from 24 h post-infection, 16 mg/kg
  Viral titer in lungs: 5.80 log10 TCID50/mL and 5.63 log10 TCID50/mL and 5.53 log10 TCID50/mL (2×) and 4.97 log10 TCID50/mL
[4]; 32 mg/kg oral from 24 h post-infection, 32 mg/kg
  Viral titer in lungs: 4.30 log10 TCID50/mL and 3.80 log10 TCID50/mL and 4.63 log10 TCID50/mL (3×)
[4]; 64 mg/kg oral from 24 h post-infection, 64 mg/kg
  Viral titer in lungs: 2.80 log10 TCID50/mL and 3.80 log10 TCID50/mL (2×) and 3.63 log10 TCID50/mL and 3.30 log10 TCID50/mL
[5]
  Mouse PA-EC50: 2090 ng/mL
[5]; read-out: Mouse PA-EC50
  EC50: 3.93 µM

## CC(C)(C)[C@H](NC(=O)C(F)(F)F)C(=O)N1C[C@H]2[C@@H]([C@H]1C(=O)N[C@H](C#N)C[C@@H]1CCNC1=O)C2(C)C [nirmatrelvir, reference compound]
[4]; delayed-treatment mouse model
  Antiviral activity in this model: demonstrates antiviral activity
